Measured values: US20240228468A1, “N-(6-((OCTAHYDROCYCLOPENTA[C]PYRROL-5-YI)AMINO)PYRIDAZIN-3-YL)PHENYL)CARBOXAMIDE AND (6- ((OCTAHYDROCYCLOPENTA[C]PYRROL-5-YL)AMINO)PYRIDAZIN-3-YL)BENZAMIDE DERIVATIVES AS MACHR M4 ANTAGONISTS FOR THE TREATMENT OF NEURODEGENERATIVE DISORDERS” (Vanderbilt University, priority 2021, published 2024)
Like-named read-outs stand apart in the source and are kept apart here.

Target: T1, Human M4 (Homo sapiens, UniProt P08173)
T1 construct: expressed in transfected cells; host or cells: CHO-K1 (ATCC), co-transfected with chimeric G protein Gqi5
T1 sequence (P08173 1-479): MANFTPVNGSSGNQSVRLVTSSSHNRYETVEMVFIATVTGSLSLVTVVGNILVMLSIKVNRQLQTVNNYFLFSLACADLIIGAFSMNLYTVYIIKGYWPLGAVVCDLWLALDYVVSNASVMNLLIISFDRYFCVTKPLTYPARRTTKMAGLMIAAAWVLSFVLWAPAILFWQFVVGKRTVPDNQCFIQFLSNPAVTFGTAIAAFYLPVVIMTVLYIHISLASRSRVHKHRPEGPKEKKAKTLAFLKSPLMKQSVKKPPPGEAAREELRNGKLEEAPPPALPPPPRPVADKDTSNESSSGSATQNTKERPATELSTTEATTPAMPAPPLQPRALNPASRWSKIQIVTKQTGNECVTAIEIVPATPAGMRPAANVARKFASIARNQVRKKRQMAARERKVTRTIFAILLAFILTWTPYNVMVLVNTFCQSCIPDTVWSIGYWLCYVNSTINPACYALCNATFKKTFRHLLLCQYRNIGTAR
Assay: mAChR M4 cell-based functional assay (calcium flux, antagonism of EC80 acetylcholine response)
Conditions: for IC50: concentration-dependent decrease of the response elicited by an EC80 concentration of acetylcholine
Protocol: Human or rat M4 cDNA, along with the chimeric G protein Gqi5, were transfected into Chinese hamster ovary (CHO-K1) cells purchased from the American Type Culture Collection using Lipofectamine2000. M4/Gqi5/CHO cells were grown in Ham's F-12 medium containing 10% heat-inactivated fetal bovine serum (FBS), 20 mM HEPES, 500 μg/mL G418 sulfate, and 200 μg/mL Hygromycin B.
For high throughput measurement of agonist-evoked increases in intracellular calcium, CHO-K1 cells stably expressing muscarinic receptors were plated in growth medium lacking G418 and hygromycin at 15,000 cells/20 μL/well in Greiner 384-well black-walled, tissue culture (TC)-treated, clear-bottom plates (VWR). Cells were incubated overnight at 37° C. and 5% CO2. The next day, cells were washed using an ELX 405 (BioTek) with assay buffer; the final volume was then aspirated to 20 μL. Next, 20 μL of a 2.3 μM stock of Fluo-4/acetoxymethyl ester (Invitrogen, Carlsbad, CA), prepared as a 2.3 mM stock in DMSO and mixed in a 1:1 ratio with 10% (w/v) Pluronic F-127 and diluted in assay buffer, was added to the wells and the cell plates were incubated for 50 min at 37° C. and 5% CO2. Dye was removed by washing with the ELX 405 and the final volume was aspirated to 20 μL. Compound master plates were formatted in a 10 point concentration-response curve (CRC) format (1:3 dilutions) in 100% DMSO with a starting concentration of 10 or 1 mM using a BRAVO liquid handler (Agilent). Test compound CRCs were then transferred to daughter plates (240 nL) using the Echo acoustic plate reformatter (Labcyte, Sunnyvale, CA) and then diluted into assay buffer (40 μL) to a 2× stock using a Thermo Fisher Combi (Thermo Fisher Scientific, Waltham, MA).
Calcium flux was measured using the Functional Drug Screening System (FDSS) 6000 or 7000 (Hamamatsu Corporation, Tokyo, Japan) as an increase in the fluorescent static ratio. Compounds were applied to cells (20 μL, 2×) using the automated system of the FDSS at 2 seconds into the protocol and the data were collected at 1 Hz. At 143 s, 10 μL of an EC20 concentration of the muscarinic receptor agonist acetylcholine was added (5×), followed by the addition of 12 μL of an EC80 concentration of acetylcholine at the 268 s time point (5×). Agonist activity was analyzed as a concentration-dependent increase in calcium mobilization upon compound addition. Positive allosteric modulator activity was analyzed as a concentration-dependent increase in the EC20 acetylcholine response. Antagonist activity was analyzed as a concentration-dependent decrease in the EC80 acetylcholine response; for the purposes of the tables herein, an IC50 (inhibitory concentration 50) was calculated as a concentration-dependent decrease of the response elicited by an EC80 concentration of acetylcholine. Concentration-response curves were generated using a four-parameter logistical equation in XLFit curve fitting software (IDBS, Bridgewater, NJ) for Excel (Microsoft, Redmond, WA) or Prism (GraphPad Software, Inc., San Diego, CA) or the Dotmatics software platform (Dotmatics, Bishop's Stortford, UK).
Compounds were synthesized as described above. Activity (IC50 and Emin) was determined in the mAChR M4 cell-based functional assay as described above and the data are shown in Table 2.

[1] = M4/Gqi5/CHO-K1 cells, % ACh maximum at 30 μM, read-out: Human M4 Emin (% ACh maximum at 30 μM)
[2] = CHO-K1, read-out: Human M4 Emin (% ACh maximum at 30 μM)
[3] = M4/Gqi5/CHO-K1 cells, % ACh maximum at 30 μM

Compound	remaining activity at 30 µM [1] [%]	IC50 (M4/Gqi5/CHO-K1 cells) [nM]	Human M4 Emin (% ACh maximum at 30 μM) [3] [%]	remaining activity at 30 µM [2] [%]
CCC(=O)Nc1ccc(-c2ccc(N[C@H]3C[C@@H]4CN(CC5CCOCC5)C[C@@H]4C3)nn2)cc1 [Compound A39, N-(4-(6-(((3aR,5s,6aS)-2-((tetrahydro-2H-pyran-4-yl)methyl)octahydrocyclopenta[c]pyrrol-5-yl)amino)pyridazin-3-yl)phenyl)propionamide]	3	3.1		
CC(=O)Nc1ccc(-c2ccc(N[C@H]3C[C@@H]4CN(Cc5ccccn5)C[C@@H]4C3)nn2)cc1 [Compound A8, N-(4-(6-(((3aR,5s,6aS)-2-(Pyridin-2-ylmethyl)octahydrocyclopenta[c]pyrrol-5-yl)amino)pyridazin-3-yl)phenyl)acetamide]		43		5
[2H]C([2H])(C1CCOCC1)N1C[C@H]2C[C@H](Nc3ccc(-c4ccccc4NC(=O)CC)nn3)C[C@H]2C1 [Compound A50, N-(2-(6-(((3aR,5s,6aS)-2-((tetrahydro-2H-pyran-4-yl)methyl-d2)octahydrocyclopenta[c]pyrrol-5-yl)amino)pyridazin-3-yl)phenyl)propionamide]	4	56		
CN(C)C(=O)c1ccc(-c2ccc(N[C@H]3C[C@@H]4CN(CC5CCOCC5)C[C@@H]4C3)nn2)c(F)c1 [Compound A37, 3-fluoro-N,N-dimethyl-4-(6-(((3aR,5s,6aS)-2-((tetrahydro-2H-pyran-4-yl)methyl)octahydrocyclopenta[c]pyrrol-5-yl)amino)pyridazin-3-yl)benzamide]	5	14		
CC(=O)Nc1ccc(-c2ccc(N[C@H]3C[C@@H]4CN(Cc5ccccc5C(F)(F)F)C[C@@H]4C3)nn2)cc1 [Compound A7, N-(4-(6-(((3aR,5s,6aS)-2-(2-(trifluoromethyl)benzyl)octahydrocyclopenta [c]pyrrol-5-yl)amino)pyridazin-3-yl)phenyl)acetamide]	10	1100		
[2H]C([2H])([2H])NC(=O)c1cccc(-c2ccc(N[C@H]3C[C@@H]4CN(C([2H])([2H])C5CCOCC5)C[C@@H]4C3)nn2)c1 (single isomer, unassigned) [Compound A49]	3	5.5		
[2H]C([2H])(C1CCOCC1)N1C[C@H]2C[C@H](Nc3ccc(-c4ccc(NC(=O)C5CC5)cc4)nn3)C[C@H]2C1 [Compound A35, N-(4-(6-(((3aR,5s,6aS)-2-((tetrahydro-2H-pyran-4-yl)methyl-d2)octahydrocyclopenta[c]pyrrol-5-yl)amino)pyridazin-3-yl)phenyl)cyclopropanecarboxamide]	4	1.2		
[2H]C([2H])([2H])NC(=O)c1ccc(-c2ccc(N[C@H]3C[C@@H]4CN(C([2H])([2H])C5CCOCC5)C[C@@H]4C3)nn2)cc1 (single isomer, unassigned) [Compound A55]		5.1		3

Second part, led by results:

remaining activity at 30 µM [1] [%]	IC50 (M4/Gqi5/CHO-K1 cells) [nM]	Human M4 Emin (% ACh maximum at 30 μM) [3] [%]	Compound	remaining activity at 30 µM [2] [%]
5	120		[2H]C([2H])(C1CCOCC1)N1C[C@H]2C[C@H](Nc3ccc(-c4cc(C(=O)NC)ccc4F)nn3)C[C@H]2C1 [Compound A69, 4-fluoro-N-methyl-3-(6-(((3aR,5s,6aS)-2-((tetrahydro-2H-pyran-4-yl)methyl-d2)octahydrocyclopenta[c]pyrrol-5-yl)amino)pyridazin-3-yl)benzamide]	
5	7.8		[2H]C([2H])(C1CCOCC1)N1C[C@H]2C[C@H](Nc3ccc(-c4ccc(C(=O)NCC)cc4)nn3)C[C@H]2C1 [Compound A52, N-ethyl-4-(6-(((3aR,5s,6aS)-2-((tetrahydro-2H-pyran-4-yl)methyl-d2)octahydrocyclopenta[c]pyrrol-5-yl)amino)pyridazin-3-yl)benzamide]	
3	9.9		[2H]C([2H])([2H])NC(=O)c1ccc(-c2ccc(N[C@H]3C[C@@H]4CN(CC5CCOCC5)C[C@@H]4C3)nn2)cc1 (single isomer, unassigned) [Compound A54]	
5	16		[2H]C([2H])(C1CCOCC1)N1C[C@H]2C[C@H](Nc3ccc(-c4ccc(C(=O)NC)cc4)nn3)C[C@H]2C1 (single isomer, unassigned) [Compound A64]	
	1.4	4	N-methyl-3-(6-(((3aR,5s,6aS)-2-(((S)- tetrahydro-2H-pyran-2-yl)methyl- d2)octahydrocyclopenta[c]pyrrol-5- yl)amino)pyridazin-3-yl)benzamide [Compound A80]	
	2.4	3	[2H]C([2H])([2H])C(=O)Nc1ccc(-c2ccc(N[C@H]3C[C@@H]4CN(CC5CCOCC5)C[C@@H]4C3)nn2)cc1 (single isomer, unassigned) [Compound B5]	
4	0.41		[2H]C([2H])([C@H]1CCCCO1)N1C[C@H]2C[C@H](Nc3ccc(-c4cccc(C(=O)NC)c4)nn3)C[C@H]2C1 [Compound A81, N-methyl-3-(6-(((3aR,5s,6aS)-2-(((R)-tetrahydro-2H-pyran-2-yl)methyl-d2)octahydrocyclopenta[c]pyrrol-5-yl)amino)pyridazin-3-yl)benzamide]	
3	13		[2H]C([2H])([2H])C(=O)Nc1cccc(-c2ccc(N[C@H]3C[C@@H]4CN(C([2H])([2H])C5CCOCC5)C[C@@H]4C3)nn2)c1 [Compound A62, N-(3-(6-(((3aR,5s,6aS)-2-((tetrahydro-2H-pyran-4-yl)methyl-d2)octahydrocyclopenta[c]pyrrol-5-yl)amino)pyridazin-3-yl)phenyl)acetamide-2,2,2-d3]	
4	43		CCC(=O)Nc1cccc(-c2ccc(N[C@H]3C[C@@H]4CN(CC5CCOCC5)C[C@@H]4C3)nn2)c1 [Compound A56, N-(3-(6-(((3aR,5s,6aS)-2-((tetrahydro-2H-pyran-4-yl)methyl)octahydrocyclopenta[c]pyrrol-5-yl)amino)pyridazin-3-yl)phenyl)propionamide]	
6	210		[2H]C([2H])([2H])NC(=O)c1ccccc1-c1ccc(N[C@H]2C[C@@H]3CN(CC4CCOCC4)C[C@@H]3C2)nn1 [Compound A60, N-(methyl-d3)-2-(6-(((3aR,5s,6aS)-2-((tetrahydro-2H-pyran-4-yl)methyl)octahydrocyclopenta[c]pyrrol-5-yl)amino)pyridazin-3-yl)benzamide]	
3	2.1		CCNC(=O)c1ccc(-c2ccc(N[C@H]3C[C@@H]4CN(CC5CCOCC5)C[C@@H]4C3)nn2)cc1 [Compound A51, N-ethyl-4-(6-(((3aR,5s,6aS)-2-((tetrahydro-2H-pyran-4-yl)methyl)octahydrocyclopenta[c]pyrrol-5-yl)amino)pyridazin-3-yl)benzamide]	
